Measurements: ChEMBL document CHEMBL4177730, “Rational modification of semaxanib and sunitinib for developing a tumor growth inhibitor targeting ATP binding site of tyrosine kinase” (2018)
The source made the active and inactive calls.

Key:
Type in all cases: functional, cell-based
[1] = test system: OVCAR-4; experiment: Growth inhibition of human OVCAR4 cells at 10 uM after 48 hrs by sulforhodamine B assay
[2] = test system: DU-145; experiment: Growth inhibition of human DU145 cells at 10 uM after 48 hrs by sulforhodamine B assay
[3] = test system: UACC-62; experiment: Growth inhibition of human UACC62 cells at 10 uM after 48 hrs by sulforhodamine B assay
[4] = test system: OVCAR-3; experiment: Growth inhibition of human OVCAR3 cells at 10 uM after 48 hrs by sulforhodamine B assay
[5] = test system: SW-620; experiment: Growth inhibition of human SW620 cells at 10 uM after 48 hrs by sulforhodamine B assay
[6] = test system: A498; experiment: Growth inhibition of human A498 cells at 10 uM after 48 hrs by sulforhodamine B assay
[7] = test system: Hs-578T; experiment: Growth inhibition of human Hs 578T cells at 10 uM after 48 hrs by sulforhodamine B assay
[8] = test system: SF-268; experiment: Growth inhibition of human SF268 cells at 10 uM after 48 hrs by sulforhodamine B assay
[9] = test system: A549; experiment: Growth inhibition of human A549/ATCC cells at 10 uM after 48 hrs by sulforhodamine B assay
[10] = test system: SN12C; experiment: Growth inhibition of human SN12C cells at 10 uM after 48 hrs by sulforhodamine B assay
[11] = test system: HL-60(TB); experiment: Growth inhibition of human HL-60(TB) cells at 10 uM after 48 hrs by sulforhodamine B assay
[12] = test system: M14; experiment: Growth inhibition of human M14 cells at 10 uM after 48 hrs by sulforhodamine B assay
[13] = test system: IGROV-1; experiment: Growth inhibition of human IGROV1 cells at 10 uM after 48 hrs by sulforhodamine B assay
[14] = test system: UO-31; experiment: Growth inhibition of human UO31 cells at 10 uM after 48 hrs by sulforhodamine B assay
[15] = test system: SK-OV-3; experiment: Growth inhibition of human SKOV3 cells at 10 uM after 48 hrs by sulforhodamine B assay
[16] = test system: CAKI-1; experiment: Growth inhibition of human CAKI-1 cells at 10 uM after 48 hrs by sulforhodamine B assay
[17] = test system: SK-MEL-5; experiment: Growth inhibition of human SK-MEL-5 cells at 10 uM after 48 hrs by sulforhodamine B assay
[18] = test system: KM12; experiment: Growth inhibition of human KM12 cells at 10 uM after 48 hrs by sulforhodamine B assay
[19] = test system: HOP-92; experiment: Growth inhibition of human HOP92 cells at 10 uM after 48 hrs by sulforhodamine B assay
[20] = test system: HT-29; experiment: Growth inhibition of human HT-29 cells at 10 uM after 48 hrs by sulforhodamine B assay
[21] = test system: HCT-15; experiment: Growth inhibition of human HCT15 cells at 10 uM after 48 hrs by sulforhodamine B assay
[22] = test system: OVCAR-8; experiment: Growth inhibition of human OVCAR8 cells at 10 uM after 48 hrs by sulforhodamine B assay
[23] = test system: SF-295; experiment: Growth inhibition of human SF295 cells at 10 uM after 48 hrs by sulforhodamine B assay
[24] = test system: SNB-19; experiment: Growth inhibition of human SNB19 cells at 10 uM after 48 hrs by sulforhodamine B assay
[25] = test system: NCI/ADR-RES; experiment: Growth inhibition of human NCI-ADR-RES cells at 10 uM after 48 hrs by sulforhodamine B assay
[26] = test system: HCT-116; experiment: Growth inhibition of human HCT116 cells at 10 uM after 48 hrs by sulforhodamine B assay
[27] = test system: LOX IMVI; experiment: Growth inhibition of human LOXIMVI cells at 10 uM after 48 hrs by sulforhodamine B assay
[28] = test system: U-251; experiment: Growth inhibition of human U251 cells at 10 uM after 48 hrs by sulforhodamine B assay
[29] = test system: NCI-H522; experiment: Growth inhibition of human NCI-H522 cells at 10 uM after 48 hrs by sulforhodamine B assay
[30] = test system: SK-MEL-28; experiment: Growth inhibition of human SK-MEL-28 cells at 10 uM after 48 hrs by sulforhodamine B assay
[31] = test system: MCF7; experiment: Growth inhibition of human MCF7 cells at 10 uM after 48 hrs by sulforhodamine B assay
[32] = test system: SK-MEL-2; experiment: Growth inhibition of human SK-MEL-2 cells at 10 uM after 48 hrs by sulforhodamine B assay
[33] = test system: SR; experiment: Growth inhibition of human SR cells at 10 uM after 48 hrs by sulforhodamine B assay
[34] = test system: MDA-MB-231; experiment: Growth inhibition of human MDA-MB-231 cells at 10 uM after 48 hrs by sulforhodamine B assay
[35] = test system: RXF 393; experiment: Growth inhibition of human RXF393 cells at 10 uM after 48 hrs by sulforhodamine B assay
[36] = test system: 786-0; experiment: Growth inhibition of human 786-0 cells at 10 uM after 48 hrs by sulforhodamine B assay
[37] = test system: Malme-3M; experiment: Growth inhibition of human MALME-3M cells at 10 uM after 48 hrs by sulforhodamine B assay
[38] = test system: NCI-H226; experiment: Growth inhibition of human NCI-H226 cells at 10 uM after 48 hrs by sulforhodamine B assay
[39] = test system: COLO 205; experiment: Growth inhibition of human COLO205 cells at 10 uM after 48 hrs by sulforhodamine B assay
[40] = test system: OVCAR-5; experiment: Growth inhibition of human OVCAR5 cells at 10 uM after 48 hrs by sulforhodamine B assay
[41] = test system: MDA-MB-468; experiment: Growth inhibition of human MDA-MB-468 cells at 10 uM after 48 hrs by sulforhodamine B assay
[42] = test system: NCI-H460; experiment: Growth inhibition of human NCI-H460 cells at 10 uM after 48 hrs by sulforhodamine B assay
[43] = test system: K562; experiment: Growth inhibition of human K562 cells at 10 uM after 48 hrs by sulforhodamine B assay
[44] = test system: HCC 2998; experiment: Growth inhibition of human HCC2998 cells at 10 uM after 48 hrs by sulforhodamine B assay
[45] = test system: SNB-75; experiment: Growth inhibition of human SNB75 cells at 10 uM after 48 hrs by sulforhodamine B assay
[46] = test system: NCI-H322M; experiment: Growth inhibition of human NCI-H322M cells at 10 uM after 48 hrs by sulforhodamine B assay
[47] = test system: T47D; experiment: Growth inhibition of human T47D cells at 10 uM after 48 hrs by sulforhodamine B assay
[48] = test system: TK-10; experiment: Growth inhibition of human TK10 cells at 10 uM after 48 hrs by sulforhodamine B assay
[49] = test system: ACHN; experiment: Growth inhibition of human ACHN cells at 10 uM after 48 hrs by sulforhodamine B assay
[50] = test system: BT-549; experiment: Growth inhibition of human BT549 cells at 10 uM after 48 hrs by sulforhodamine B assay
[51] = test system: RPMI-8226; experiment: Growth inhibition of human RPMI8226 cells at 10 uM after 48 hrs by sulforhodamine B assay
[52] = test system: PC-3; experiment: Growth inhibition of human PC3 cells at 10 uM after 48 hrs by sulforhodamine B assay
[53] = test system: MDA-MB-435; experiment: Growth inhibition of human MDA-MB-435 cells at 10 uM after 48 hrs by sulforhodamine B assay
[54] = test system: SF-539; experiment: Growth inhibition of human SF539 cells at 10 uM after 48 hrs by sulforhodamine B assay
[55] = test system: MOLT-4; experiment: Growth inhibition of human MOLT4 cells at 10 uM after 48 hrs by sulforhodamine B assay
[56] = test system: CCRF-CEM; experiment: Growth inhibition of human CCRF-CEM cells at 10 uM after 48 hrs by sulforhodamine B assay
[57] = test system: HOP-62; experiment: Growth inhibition of human HOP62 cells at 10 uM after 48 hrs by sulforhodamine B assay
[58] = test system: NCI-H23; experiment: Growth inhibition of human NCI-H23 cells at 10 uM after 48 hrs by sulforhodamine B assay
[59] = test system: EKVX; experiment: Growth inhibition of human EKVX cells at 10 uM after 48 hrs by sulforhodamine B assay

Measured: growth inhibition (GI)

O=C1/C(=C\c2cccn2C(=O)c2ccc(Cl)cc2)c2ccccc2N1c1c(Cl)cccc1Cl
inactive: all assays above
